# Laboratory results as given in patent US11186575B2, “Treatment of helicobacter pylori infections” (Albert Einstein College of Medicine, Inc., priority 2012, dated 2021).
# Like-named read-outs stand apart in the source and are kept apart here.
# B1: HpMTAN (Helicobacter pylori J99) (protein)
# chain: MQKIGILGAMREEITPILELFGVDFEEIPLGGNVFHKGVYHNKEIIVAYSKIGKVHSTLTTTSMILAFGVQKVLFSGVAGSLVKDLKINDLLVATQLVQHDVDLSAFDHPLGFIPESAIFIETSGSLNALAKKIANEQHIALKEGVIASGDQFVHSKERKEFLVSEFKASAVEMEGASVAFVCQKFGVPCCVLRSISDNADEKAGMSFDEFLEKSAHTSAKFLKSMVDEL
# notes: His6 (N); made in house; host or cells: E. coli BL21 (DE3)
# Tests used:
# H. pylori [1] = assay: H. pylori growth on tryptic soy agar with 5% horse blood (MIC); assay type: cell-based, Helicobacter pylori; settings: for MIC90: Helicobacter pylori
# Protocol: (§1) H. pylori were grown for 72 hours under microaerophilic condition (5% O2, 10% CO2 and 85% N2) at 37° C. on tryptic soy agar with 5% horse blood. To determine the MIC values, the test substance was added to the gel solution right before pouring. To compare the zones of inhibition, specific antibiotics were added to the center of disc after spreading H. pylori, and then H. pylori was allowed to grow for 72 hours under microaerophilic condition at 37° C.
# The effects of BuT-DADMe-ImmA (30) were tested on H. pylori growing on 5% horse blood agar. At 6 ng/ml, slight growth was detected and at 8 ng/ml, no growth was detected, therefore the MIC90 value for inhibition of H. pylori growth is <8 ng/ml (FIG. 3A).
# E. coli = settings: reference 6; cited from earlier work
# H. pylori [2] = assay: Zone of inhibition (disc) on H. pylori; assay type: cell-based, Helicobacter pylori; settings: for zones of inhibition, comparison of antibiotics: equivalent amounts (10 ng or 20 ng per disc)
# Protocol: FIG. 3A-3B: The effects of BuT-DADMe-ImmA (30) on H. pylori growth. A. The effects of increasing the concentration of BuT-DADMe-ImmA (ng/ml) on growth on blood agar. B. The inhibitory effects of BuT-DADMe-ImmA are compared with amoxicillin, metronidazole and tetracyclin in zone of inhibition studies. Drug concentrations were: 0 (top disc), 10 ng (middle disc) or 20 ng (bottom disc). Each specified antibiotic was applied to the disc in the same manner.
# as §1
# Commonly used antibiotics in H. pylori infections include amoxicillin, metronidazole and tetracycline. The anti-H. pylori effects of BuT-DADMe-ImmA (30) were compared to those antibiotics in common use. […] Thus, BuT-DADMe-ImmA is more efficient at inhibition of H. pylori growth than commonly used antibiotics.
# V. cholerae = settings: reference 6; cited from earlier work
# S. aureus = assay: Growth of S. aureus on LB agar; assay type: cell-based; settings: culture concentrations to 5 μg/ml, 24 hours
# Protocol: (§2) At the desired concentration of the test substance BuT-DADMe-ImmA (30), K pneumoniae, S. flexneri and S. enterica were grown on MacConkey agar at 37° C. for 24 hours, and S. aureus and P. aeruginosa were grown on LB agar at 37° C. for 24 hours.
# (§3) In most bacteria, MTANs are expressed and catalyze the hydrolysis of the N-ribosidic bonds of 5′-methylthioadenosine and S-adenosylhomocysteine. The two reactions are involved in bacterial quorum sensing, sulfur recycling via S-adenosylmethionine and polyamine synthesis^16; however, most bacterial MTANs are not essential for bacterial proliferation as judged by planktonic growth conditions. […] The effects BuT-DADMe-ImmA were also tested on the growth for additional clinically common pathogens, S. aureus, K pneumoniae, S. flexneri, S. enterica and P. aeruginosa. […] Because of the inhibitor specificity for this rare menaquinone pathway, treatment of H. pylori infections with BuT-DADMe-ImmA would be unlikely to generate antibiotic resistance in off-target bacterial species.
# H. pylori MTAN [3] = molecular target: T1, H. pylori MTAN (Helicobacter pylori, UniProt Q9ZMY2); assay: Ki determination: inhibition of recombinant HpMTAN, xanthine oxidase coupled assay, 5′-methylthioadenosine as substrate; assay type: biochemical
# T1 construct: His6 (N); made in house; host or cells: E. coli BL21 (DE3)
# T1 sequence (Q9ZMY2 1-230): B1 chain
# Protocol: The purification procedure of HpMTAN was described previously^10. Briefly, BL21 (DE3) cells harboring a plasmid encoding HpMTAN with an N-terminal His6-tag were grown to an optical density of 0.7 measured at 595 nm and IPTG was introduced to a final concentration of 0.5 mM. After another 15 h at 22° C., cells were collected by centrifugation. The pellet was suspended and later disrupted by pressure cell and sonication. The soluble portion was applied to a Ni-NTA column and HpMTAN was eluted with an imidazole concentration gradient of 200 to 500 mM. The protein was desalted using a Superdex G15 gel-filtration column then equilibrated and concentrated in 10 mM Hepes, 30 mM KCl, pH 7.6. The purity was confirmed by SDS-PAGE.
# (§4) Kinetics of HpMTAN were determined using a direct assay involving absorbance decrease at 274 nm continuously as a consequence of formation of free adenine from 5′-methylthioadenosine. The Ki and Ki* values of BuT-DADMe-ImmA (30) were determined using coupled assays, in which xanthine oxidase was used as the coupling enzyme and absorbance increase was followed at 292 nm as the product adenine is converted to 2,8-dihydroxyadenine. Both assays have been previously described
# (§5) BuT-DADMe-ImmA (30) was previously characterized as a transition state analogue inhibitor of EcMTAN (FIG. 1C)^8. Here, inhibition assays were performed using BuT-DADMe-ImmA against recombinant HpMTAN with 5′-methylthioadenosine as substrate. Purified HpMTAN uses both 5′-methylthioadenosine and 6-amino-6-deoxyfutalosine as facile substrates. […] The low Kd value supports the proposal that BuT-DADMe-ImmA is a transition state analogue inhibitor for HpMTAN. […] The nitrogen of the hydroxypyrrolidine moiety has a pKa value of 9, and thus mimics the positive charge of a ribocation at the transition state. The methylene bridge extends the distance between the sugar and the purine base leaving group, as this distance is near 3 Å at the transition state. The 9-deazaadenine alters conjugation in the purine ring, causing an elevated pKa and protonation of N7, resembling the N7-protonated adenine leaving group at the transition state.
# S. enterica = assay: Growth of S. enterica on MacConkey agar; assay type: cell-based; settings: culture concentrations to 5 μg/ml, 24 hours
# Protocol: as §2, §3
# MTAN [4] = molecular target: T2, MTAN (Escherichia coli, UniProt P0AF12); settings: reference 6; cited from earlier work
# T2 construct: host or cells: E. coli cells
# T2 sequence (P0AF12 whole entry): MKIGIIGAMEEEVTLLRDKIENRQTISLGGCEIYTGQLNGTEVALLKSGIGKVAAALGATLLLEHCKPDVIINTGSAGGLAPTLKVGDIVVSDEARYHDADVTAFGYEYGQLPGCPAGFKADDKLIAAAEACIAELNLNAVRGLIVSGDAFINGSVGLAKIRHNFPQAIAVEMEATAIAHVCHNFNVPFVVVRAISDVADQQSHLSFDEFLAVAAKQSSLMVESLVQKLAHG
# H. pylori MTAN [5] = molecular target: T1, H. pylori MTAN; settings: Table 3, cited from earlier work
# K. pneumoniae = assay: Growth of K. pneumoniae on MacConkey agar; assay type: cell-based; settings: culture concentrations to 5 μg/ml, 24 hours
# Protocol: as §2, §3
# S. flexneri = assay: Growth of S. flexneri on MacConkey agar; assay type: cell-based; settings: culture concentrations to 5 μg/ml, 24 hours
# Protocol: as §2, §3
# [6] = stated without a test; cited from earlier work
# MTAN [7] = molecular target: T3, MTAN (Vibrio cholerae serotype O1, UniProt Q9KPI8); settings: reference 6; cited from earlier work
# T3 construct: host or cells: V. cholerae cells
# T3 sequence (Q9KPI8 whole entry): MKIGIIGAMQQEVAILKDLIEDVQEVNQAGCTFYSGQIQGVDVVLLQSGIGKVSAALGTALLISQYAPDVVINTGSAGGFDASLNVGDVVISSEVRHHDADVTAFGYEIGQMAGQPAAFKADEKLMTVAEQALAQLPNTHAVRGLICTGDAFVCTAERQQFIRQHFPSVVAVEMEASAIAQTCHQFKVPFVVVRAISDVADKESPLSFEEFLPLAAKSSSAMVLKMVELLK
# P. aeruginosa = assay: Growth of P. aeruginosa on LB agar; assay type: cell-based; settings: culture concentrations to 5 μg/ml, 24 hours
# Protocol: as §2, §3
# HpMTAN = molecular target: T4, HpMTAN (Helicobacter pylori, UniProt Q9ZMY2); assay: Kinetics of HpMTAN with substrates, direct assay (absorbance at 274 nm); assay type: biochemical; settings: substrate of purified HpMTAN
# T4 construct: His6 (N); made in house; host or cells: E. coli BL21 (DE3)
# T4 sequence (Q9ZMY2 1-230): B1 chain
# Protocol: as §4
# as §5, with “The 9-deazaadenine alters conjugation in the purine ring, causing an elevated pKa and protonation of N7, resembling the N7-protonated adenine leaving group at the transition state.” left out
# [8] = substrate: CC(O)[C@H]1O[C@@H](n2cnc3c(N)ncnc32)[C@H](S)[C@@H]1O; assay: as above; assay type: biochemical, Helicobacter pylori; settings: other: substrate of purified HpMTAN
# Protocol: as §4, §5
molecule,measurement,setting,value
"CCCCSC[C@H]1CN(Cc2c[nH]c3c(N)ncnc23)C[C@@H]1O [Compound 30, (3R,4S)-4-(1-butylthiomethyl)-1-[(9-deaza-adenin-9-yl)-methyl]-3-hydroxypyrrolidine]",MIC90,"H. pylori [1]; 5% horse blood agar, read-out: MIC90 value for inhibition of H. pylori growth",< 8 ng/mL
same,MIC90,"H. pylori [1]; Table 3, agar plate, 72 hours, microaerophilic, read-out: Inhibition of H. pylori growth MIC90",6 to 8 ng/mL
same,MIC90,"H. pylori [1]; corresponds to MIC90 of 8 ng/ml, read-out: MIC90 as chemical concentration",0.023 µM
same,H. pylori growth,"H. pylori [1]; at 6 ng/ml, 5% horse blood agar",slight growth
same,H. pylori growth,"H. pylori [1]; at 8 ng/ml, 5% horse blood agar",no growth
same,effect on growth of E. coli,E. coli,did not affect the growth
same,zones of clearance,H. pylori [2]; 10 ng on disc,Small zones of clearance
same,zones of clearance,H. pylori [2]; 20 ng on disc,large zones
same,"zones of inhibition, comparison of antibiotics",H. pylori [2],greater than those for any of the other antibiotics
same,effect on growth of V. cholerae,V. cholerae,did not affect the growth
same,growth inhibition of S. aureus,S. aureus,no growth inhibition
same,Ki,"H. pylori MTAN [3]; 5′-methylthioadenosine as substrate, read-out: initial inhibition constant (Ki)",0.8 nM
same,Km/Kd ratio,H. pylori MTAN [3]; Km 0.8 μM for 6-amino-6-deoxyfutalosine as substrate,"22,200"
same,Kd,"H. pylori MTAN [3]; following slow-onset of inhibition, read-out: equilibrium dissociation constant (Ki*=Kd)",0.036 nM
same,growth inhibition of S. enterica,S. enterica,no growth inhibition
same,MTAN activity in E. coli,MTAN [4],totally abolished
same,Ki,"H. pylori MTAN [5]; value from Reference 10, read-out: Inhibition of H. pylori MTAN Ki*",0.036 ± 0.002 nM
same,Ki,"H. pylori MTAN [5]; value marked (Reference 10), read-out: Inhibition of H. pylori MTAN Ki",0.79 ± 0.04 nM
same,growth inhibition of K. pneumoniae,K. pneumoniae,no growth inhibition
same,growth inhibition of S. flexneri,S. flexneri,no growth inhibition
same,pKa value of the nitrogen of the hydroxypyrrolidine moiety,[6],9
same,MTAN activity in V. cholerae,MTAN [7],totally abolished
same,growth inhibition of P. aeruginosa,P. aeruginosa,no growth inhibition
Nc1ncnc2c1ncn2[C@@H]1O[C@H](CCC(=O)c2cccc(C(=O)O)c2)[C@@H](O)[C@H]1O [6-amino-6-deoxyfutalosine],Km,HpMTAN,0.8 ± 0.3 µM
same,kcat,HpMTAN; in 1/s,4.3±0.9
"CC1(C)S[C@@H]2[C@H](NC(=O)[C@H](N)c3ccc(O)cc3)C(=O)N2[C@H]1C(=O)O [amoxicillin, reference compound]","zones of inhibition, comparison of antibiotics",H. pylori [2],smaller zone of growth inhibition than BuT-DADMe-ImmA
B1,Km,[8],0.6 ± 0.3 µM
same,kcat,[8],12.1 s⁻¹
same,kcat/Km,[8],2e+07 M⁻¹ s⁻¹
